These molecules were tested against T1, LmjIPCS (inositol phosphorylceramide synthase from L. major) (Leishmania major, UniProt E9AFX2) (assay: biochemical). Details: not given.
T1 sequence (E9AFX2 1-338): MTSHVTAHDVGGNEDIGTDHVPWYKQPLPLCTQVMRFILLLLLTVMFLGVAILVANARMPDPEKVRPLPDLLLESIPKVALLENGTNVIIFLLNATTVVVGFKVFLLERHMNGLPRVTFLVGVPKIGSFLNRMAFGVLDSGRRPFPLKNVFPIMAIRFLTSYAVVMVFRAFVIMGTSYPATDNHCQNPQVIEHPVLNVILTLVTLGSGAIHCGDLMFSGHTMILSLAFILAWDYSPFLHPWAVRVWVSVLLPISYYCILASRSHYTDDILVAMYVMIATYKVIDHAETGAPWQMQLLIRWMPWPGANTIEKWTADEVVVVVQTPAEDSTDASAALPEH
Type: biochemical
Design: inhibition: dose or concentration left out as unconfirmed

Compared with `CNC(C)C(O)c1ccccc1` (centres unmarked) [RACEPHEDRINE], `CCCNCC(O)COc1ccccc1C(=O)CCc1ccccc1` (centres unmarked) [PROPAFENONE] is higher in “20mM inhibition LmjIPCS” value: 41% for the first, 61% for the second.

Compared with `CC[C@H]1OC(=O)[C@H](C)[C@@H](O[C@H]2C[C@@](C)(OC)[C@@H](O)[C@H](C)O2)[C@H](C)[C@@H](O[C@@H]2O[C@H](C)C[C@H](N(C)C)[C@H]2O)[C@](C)(O)C[C@@H](C)[C@@H]2N[C@@H](COCCOC)O[C@H]([C@H]2C)[C@]1(C)O` [DIRITHROMYCIN], `CC(C)=CCC[C@]1(C)C=Cc2c(O)c3c(c(CC=C(C)C)c2O1)O[C@]12C(=C[C@@H]4C[C@H]1C(C)(C)O[C@@]2(C/C=C(/C)C(=O)O)C4=O)C3=O` [GAMBOGIC ACID] is higher in “20mM inhibition LmjIPCS” value: 47% for the first, 58% for the second.

Going from `C[C@]12CCC3c4ccc(OC(=O)CCC(=O)O)cc4CCC3C1CCC2=O` (some centres unmarked) [ESTRONE HEMISUCCINATE] to `CNC(=O)Oc1ccc2c(c1)[C@]1(C)CCN(C)[C@@H]1N2C` [ESERINE], the “20mM inhibition LmjIPCS” value falls from 12% to 9%.

Going from `C=C(C)[C@H]1Cc2c(ccc3c2O[C@@H]2COc4cc(OC)c(OC)cc4[C@@H]2C3=O)O1` [ROTENONE] to `COc1ccc(CCN(C)CCCC(C#N)(c2ccc(OC)c(OC)c2)C(C)C)cc1OC` (centres unmarked), the “20mM inhibition LmjIPCS” value falls from 43% to 42%.

First: CNC(=N)NCCC[C@H](N)C(=O)O [TARGININE]
Second: N=C(N)NC(=O)c1nc(Cl)c(N)nc1N [AMILORIDE]
The “20mM inhibition LmjIPCS” value of the first is lower: -2% for the first, 52% for the second.

Compared with `Cc1cc(O)cc(C)c1Cl` [CHLOROXYLENOL], `Cc1cc(O)ccc1Cl` [CHLOROCRESOL] is lower in “20mM inhibition LmjIPCS” value: 53% for the first, 49% for the second.

Going from `CCOc1ccc(NC(C)=O)cc1` [PHENACETIN] to `c1ccc(-c2ccc(C(c3ccccc3)n3ccnc3)cc2)cc1` (centres unmarked) [BIFONAZOLE], the “20mM inhibition LmjIPCS” value rises from 38% to 52%.

With `NS(=O)(=O)c1cc2c(cc1Cl)N=CNS2(=O)=O` [CHLOROTHIAZIDE] the “20mM inhibition LmjIPCS” value was 51%.

Same assay, conditions: NINDS set screen, compound at 20mM (so in the source)

First: Cc1cc(C(C)(C)CC(C)(C)C)ccc1OCCOCC[N+](C)(C)Cc1ccccc1.[Cl-] [METHYLBENZETHONIUM CHLORIDE]
Second: N.N.O=C([O-])C1(C(=O)[O-])CCC1.[Pt+2] [CARBOPLATIN]
The “20mM inhibition LmjIPCS” value of the first is lower: 12% for the first, 16% for the second.

Same assay, conditions: NINDS set screen, single concentration printed as 20mM

Compared with `CN1CCc2cccc3c2[C@H]1Cc1ccc(O)c(O)c1-3` [APOMORPHINE], `N[C@@H]1C[C@H]1c1ccccc1` (racemic) [TRANYLCYPROMINE] is higher in “20mM inhibition LmjIPCS” value: 47% for the first, 49% for the second.

Compared with `CC(=O)O[C@@H]1C[C@H]2C(C)(C)C(=O)C=C[C@]2(C)[C@H]2CC[C@@]3(C)[C@H](c4ccoc4)OC(=O)[C@H]4O[C@]43[C@@]21C` [GEDUNIN], `CCCCC(CC)CNC(=N)NC(=N)NCCCCCCNC(=N)NC(=N)NCC(CC)CCCC` (centres unmarked) [ALEXIDINE] is lower in “20mM inhibition LmjIPCS” value: 48% for the first, 47% for the second.

First: Cc1cc2cc3c(C)cc(=O)oc3c(C)c2o1 [TRIOXSALEN]
Second: O=C1C(O)=C([C@H]2CC[C@H](c3ccc(Cl)cc3)CC2)C(=O)c2ccccc21 [ATOVAQUONE]
The “20mM inhibition LmjIPCS” value of the first is lower: 42% for the first, 46% for the second.

In the case of CAPREOMYCIN, the “20mM inhibition LmjIPCS” value is reported as 52%.

Same assay, conditions: NINDS set screen; read-out: inhibition LmjIPCS

Going from `Cn1c(=O)c2c(ncn2CC(O)CO)n(C)c1=O` (centres unmarked) [DYPHYLLINE] to `CCN(CC)CCNC(=O)COc1ccc(OC)cc1` [MEFEXAMIDE], the inhibition rises from -5.31% to 13%.

Going from `O=[N+]([O-])c1cccc2cn[nH]c12` [7-NITROINDAZOLE] to `Clc1ccc(C(OCCN2CCCCC2)c2ccccc2)cc1` (centres unmarked) [CLOPERASTINE], the inhibition falls from 24% to 13%.

Compared with `CC(C)(O)CC[C@@H](O)[C@](C)(O)[C@H]1CC[C@@]2(O)C3=CC(=O)[C@@H]4C[C@@H](O)[C@@H](O)C[C@]4(C)[C@H]3CC[C@]12C` [CRUSTECDYSONE], `CC(=O)O[C@]1(C(C)=O)CC[C@H]2[C@@H]3C[C@H](C)C4=CC(=O)CC[C@]4(C)[C@H]3CC[C@@]21C` [MEDROXYPROGESTERONE ACETATE] is higher in inhibition: -3.51% for the first, 17% for the second.

First: CC(=O)NC1CCSC1=O (centres unmarked) [CITIOLONE]
Second: CCCCNc1ccc(C(=O)OCCN(C)C)cc1 [TETRACAINE]
The inhibition of the first is lower: -8% for the first, 18% for the second.

Same assay, conditions: read-out: 20mM inhibition LmjIPCS

Compared with `C#C[C@]1(O)CC[C@H]2[C@@H]3CCC4=C(CCC(=O)C4)[C@H]3CC[C@@]21C` [NORETHYNODREL], `C[C@@H]1O[C@@H](O[C@H]2CC[C@]3(C=O)[C@H]4CC[C@]5(C)[C@@H](C6=CC(=O)OC6)CC[C@]5(O)[C@@H]4CC[C@]3(O)C2)[C@H](O)[C@H](O)[C@H]1O` [CONVALLATOXIN] is lower in inhibition at 20000 µM: 21% for the first, 16% for the second.

First: CO[C@@H]1C[C@@H](C[C@H]2CC[C@H](C)[C@H]([C@@H](C)C(=O)O)O2)O[C@]2(O[C@](C)([C@H]3CC[C@@](C)([C@@H]4O[C@@H]([C@H]5O[C@@](O)(CO)[C@H](C)C[C@@H]5C)C[C@@H]4C)O3)C[C@H]2C)[C@@H]1C [NIGERICIN]
Second: CCOC(=O)[C@H](CCc1ccccc1)N[C@@H](C)C(=O)N1[C@H](C(=O)O)C[C@H]2CCCC[C@@H]21 [TRANDOLAPRIL]
The inhibition at 20000 µM of the first is lower: -7.41% for the first, 7.54% for the second.

Going from `C=C(C)[C@@H]1CC=C(C(=O)O)CC1` [PERILLIC ACID (-)] to `CC1CCc2cc(F)cc3c(=O)c(C(=O)O)cn1c23` (centres unmarked) [FLUMEQUINE], the inhibition at 20000 µM falls from 12% to 5%.

Going from `CN/C(=N/CCSCc1nc[nH]c1C)NC#N` [CIMETIDINE] to `NCCc1c[nH]cn1` [HISTAMINE], the inhibition at 20000 µM rises from -0.386% to 4.39%.

First: CC(=O)N[C@@H](CC(=O)O)C(=O)O [N-ACET[…]]
Second: CCCN(CCC)C(=O)C(CCC(=O)O)NC(=O)c1ccccc1 (centres unmarked) [PROGLUMIDE]
The inhibition at 20000 µM of the first is lower: -3% for the first, 15% for the second.

First: CNC(=O)Oc1ccc2c(c1)[C@]1(C)CCN(C)[C@@H]1N2C [PHYSOSTIGMINE]
Second: CC1(C)S[C@@H]2[C@H](NC(=O)[C@H](NC(=O)N3CCNC3=O)c3ccccc3)C(=O)N2[C@H]1C(=O)O [AZLOCILLIN]
The inhibition at 20000 µM of the first is higher: 15% for the first, -4% for the second.

First: COc1c(N2C[C@@H]3CCCN[C@@H]3C2)c(F)cc2c(=O)c(C(=O)O)cn(C3CC3)c12 [MOXIFLOXACIN]
Second: CO/N=C1\CN(c2nc3c(cc2F)c(=O)c(C(=O)O)cn3C2CC2)CC1CN (centres unmarked) [GEMIFLOXACIN]
The inhibition at 20000 µM of the first is lower: 16% for the first, 25% for the second.

Compared with `c1ccc(/N=N/c2ccccc2)cc1` [AZOBENZENE], `CCOC(=O)[C@H](CCc1ccccc1)N[C@H]1CCc2ccccc2N(CC(=O)O)C1=O` [BENAZEPRIL] is lower in inhibition at 20000 µM: 2.28% for the first, -0.0339% for the second.

Compared with `OC(CCN1CCCC1)(c1ccccc1)C1CCCCC1` (centres unmarked) [PROCYCLIDINE], `CN1CCC[C@H]1c1cccnc1` [NICOTINE] is lower in inhibition at 20000 µM: 22% for the first, 10% for the second.

Going from `CN(C)c1nc(N(C)C)nc(N(C)C)n1` [ALTRETAMINE] to `Cn1c(=O)c2[nH]c(C3CCCC3)nc2n(C)c1=O` [8-CYCLOPENTYLTHEOPHYLLINE], the inhibition at 20000 µM rises from 4% to 4.71%.

First: CC(=O)OC(C)C[N+](C)(C)C (centres unmarked) [METHACHOLINE CHLORIDE]
Second: CCN(CC)C(=S)SSC(=S)N(CC)CC
The inhibition at 20000 µM of the first is lower: -18% for the first, 16% for the second.

First: NC1(C(=O)O)CCCC1 [CYCLOLEUCINE]
Second: NC(Cn1ccc(=O)c(O)c1)C(=O)O (centres unmarked) [MIMOSINE]
The inhibition at 20000 µM of the first is higher: 12% for the first, 3% for the second.

Going from `Nc1ccc(S(=O)(=O)Nc2ncccn2)cc1` [SULFADIAZINE] to `Nc1ccc(S(N)(=O)=O)cc1` [SULFANILAMIDE], the inhibition at 20000 µM falls from 18% to -1.19%.

First: C/C=C(/C(=C/C)c1ccc(O)cc1)c1ccc(O)cc1 [DIENESTROL]
Second: O=C(OCC(O)CO)c1ccccc1Nc1ccnc2cc(Cl)ccc12 (centres unmarked) [GLAFENINE]
The inhibition at 20000 µM of the first is higher: -4% for the first, -16% for the second.

Compared with `COc1cc2c3cc1Oc1c(OC)c(OC)cc4c1[C@@H](Cc1ccc(O)c(c1)Oc1ccc(cc1)C[C@@H]3N(C)CC2)N(C)CC4` [BERBAMINE], `CCCc1nc(C(C)(C)O)c(C(=O)OCc2oc(=O)oc2C)n1Cc1ccc(-c2ccccc2-c2nnn[nH]2)cc1` [OLMESARTAN MEDOXOMIL] is higher in inhibition at 20000 µM: 18% for the first, 21% for the second.

Compared with `CC[C@@]1(O)C(=O)OCc2c1cc1n(c2=O)Cc2cc3ccccc3nc2-1` [CAMPTOTHECIN], `CS(=O)(=O)c1ccc([C@@H](O)[C@@H](CO)NC(=O)C(Cl)Cl)cc1` [THIAMPHENICOL] is lower in inhibition at 20000 µM: 1.2% for the first, 0.377% for the second.

Molecule `O=C1C(Cl)=C(Cl)C(=O)C(Cl)=C1Cl` [CHLORANIL] has an inhibition at 20000 µM of 19%.

Same assay, conditions: read-out: inhibition LmjIPCS

First: O=c1cc(CO)occ1O [KOJIC ACID]
Second: Oc1cccc(O)c1 [RESORCINOL]
The inhibition of the first is higher: 11% for the first, 1.29% for the second.

Going from `O=C(O)c1cc(/N=N/c2ccc(S(=O)(=O)Nc3ccccn3)cc2)ccc1O` [SULFASALAZINE] to `CN1C(C(=O)Nc2ccccn2)=C(O)c2ccccc2S1(=O)=O` [PIROXICAM], the inhibition rises from 1.8% to 15%.

Going from `O=C(/C=C/c1ccc(O)cc1)c1ccc(O)cc1O` [ISOLIQUIRITIGENIN] to `O=C(O)Cc1ccccc1Nc1c(Cl)cccc1Cl` [DICLOFENAC], the inhibition falls from 11% to -6.5%.

Compared with `O=C(O)c1cc(=O)c2c(OCC(O)COc3cccc4oc(C(=O)O)cc(=O)c34)cccc2o1` [CROMOLYN], `CCCCC(=O)N(Cc1ccc(-c2ccccc2-c2nnn[nH]2)cc1)[C@H](C(=O)O)C(C)C` is higher in inhibition: 0.579% for the first, 20% for the second.

First: CCN(CC)CCNC(=O)c1cc(Br)c(N)cc1OC [BROMOPRIDE]
Second: CC[C@H](C)C(=O)O[C@H]1C[C@H](O)C=C2C=C[C@H](C)[C@H](CC[C@@H](O)C[C@@H](O)CC(=O)O)[C@H]21 [PRAVASTATIN]
The inhibition of the first is lower: 17% for the first, 28% for the second.

For `C[C@]12CC[C@@H]3c4ccc(O)cc4CC[C@H]3[C@@H]1C[C@@H](O)[C@@H]2O` [ESTRIOL], the inhibition was 1.42%.

Same assay, conditions: screening of NINDS set, sheet Screen 1; read-out: inhibition LmjIPCS

Work on `Cc1cc(=O)[nH]c(=S)[nH]1` [METHYLTHIOURACIL] yielded an inhibition of 7%.

From paper PMC7802075 (ACS Infectious Diseases, 2020)
